In experiment [1] the target is human GLP-1 receptor (GLP-1R) (Homo sapiens, UniProt P43220). The experiment is described as follows: cAMP pharmacological functional assay in presence of casein, hGLP-1R. In kind it is cell-based. The conditions noted are these: HEK293 cells expressing hGLP-1R, 0.1% Casein, geometric mean; read-out: hGLP1R cAMP Rel EC50 nM (SEM, n).
The target in experiment [2] is T1, gastric inhibitory peptide receptor (GIPR) (Homo sapiens, UniProt P48546).
T1 sequence (P48546 22-466): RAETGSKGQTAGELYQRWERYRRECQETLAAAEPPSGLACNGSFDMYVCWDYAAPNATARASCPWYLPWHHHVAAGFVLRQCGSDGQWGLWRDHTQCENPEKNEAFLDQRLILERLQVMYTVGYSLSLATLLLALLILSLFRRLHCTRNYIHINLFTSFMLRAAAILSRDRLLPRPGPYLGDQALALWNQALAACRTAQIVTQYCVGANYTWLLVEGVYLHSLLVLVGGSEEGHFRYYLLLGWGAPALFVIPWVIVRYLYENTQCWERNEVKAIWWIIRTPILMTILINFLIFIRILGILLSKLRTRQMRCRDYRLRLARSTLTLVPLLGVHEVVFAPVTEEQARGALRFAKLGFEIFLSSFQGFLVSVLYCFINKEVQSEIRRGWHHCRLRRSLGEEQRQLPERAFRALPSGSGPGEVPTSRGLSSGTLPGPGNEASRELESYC
The experiment is described as follows: cAMP pharmacological functional assay in presence of casein, hGIPR. The note with it: HEK293 cells expressing hGIPR, 0.1% Casein, geometric mean; read-out: hGIPR cAMP Rel EC50 nM (SEM, n). The experiment is classed as cell-based.

Numbered stars: 1 amine (or outer) side, 2 acyl side, 3 side chain; on linkers, the order of the positions; unused ones are H or OH. Square brackets hold non-standard residues; d marks the D form. Side chains are listed from the residue outwards. Peptide text beside a SMILES is read from it. * marks the point of attachment. C20 diacid = O=C(O)CCCCCCCCCCCCCCCCCCC(=O)*; γGlu = O=C(O)[C@H](CCC(=O)[*:2])N[*:1]; αMeF = C[C@](N)(Cc1ccccc1)C(=O)O; αMeL = CC(C)C[C@](C)(N)C(=O)O; AEEA = NCCOCCOCC(=O)O; Aib = CC(C)(N)C(=O)O

Broadly, the EC50 is the concentration that produces a half-maximal response.

Sequence of human GLP-1 receptor (GLP-1R) (P43220 24-463): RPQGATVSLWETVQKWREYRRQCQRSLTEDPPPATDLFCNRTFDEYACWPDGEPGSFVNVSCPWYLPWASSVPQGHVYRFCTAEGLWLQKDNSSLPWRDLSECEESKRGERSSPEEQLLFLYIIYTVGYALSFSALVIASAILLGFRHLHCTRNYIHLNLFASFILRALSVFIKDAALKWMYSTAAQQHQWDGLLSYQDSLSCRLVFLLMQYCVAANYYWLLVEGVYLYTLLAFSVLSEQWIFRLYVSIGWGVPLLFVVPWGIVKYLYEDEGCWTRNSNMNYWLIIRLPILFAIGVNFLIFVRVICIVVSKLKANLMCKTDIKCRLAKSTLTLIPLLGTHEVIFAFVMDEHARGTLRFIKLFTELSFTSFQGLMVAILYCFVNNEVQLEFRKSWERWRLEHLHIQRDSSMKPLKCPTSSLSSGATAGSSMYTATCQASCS

In the case of `CC[C@H](C)[C@H](NC(=O)[C@H](CCCCN)NC(=O)[C@H](CC(C)C)NC(=O)[C@H](CC(C)C)NC(=O)[C@@H](NC(=O)[C@H](CO)NC(=O)[C@H](Cc1ccc(O)cc1)NC(=O)[C@H](CC(=O)O)NC(=O)[C@H](CO)NC(=O)[C@@H](NC(=O)[C@H](Cc1ccccc1)NC(=O)[C@@H](NC(=O)CNC(=O)[C@H](CCC(=O)O)NC(=O)C(C)(C)NC(=O)[C@@H](N)Cc1ccc(O)cc1)[C@@H](C)O)[C@@H](C)O)[C@@H](C)CC)C(=O)N[C@@H](C)C(=O)N[C@@H](CCC(N)=O)C(=O)NC(C)(C)C(=O)N[C@@H](C)C(=O)N[C@@H](Cc1ccccc1)C(=O)N[C@H](C(=O)N[C@@H](CCC(=O)O)C(=O)N[C@@H](Cc1ccc(O)cc1)C(=O)N[C@@H](CC(C)C)C(=O)N[C@H](C(=O)N[C@@H](CCC(=O)O)C(=O)NCC(=O)NCC(=O)N1CCC[C@H]1C(=O)N[C@@H](CO)C(=O)N[C@@H](CO)C(=O)NCC(=O)N[C@@H](C)C(=O)N1CCC[C@H]1C(=O)N1CCC[C@H]1C(=O)N[C@@H](CCCCNC(=O)COCCOCCNC(=O)COCCOCCNC(=O)CC[C@H](NC(=O)CCCCCCCCCCCCCCCCCCC(=O)O)C(=O)O)C(=O)N[C@@H](CO)C(N)=O)[C@@H](C)CC)[C@@H](C)CC` [Example 77] (H-Y[Aib]EGTFTSDYSILLKIAQ[Aib]AFIEYLIEGGPSSGAPPK([AEEA-AEEA-γGlu-C20 diacid])S-NH2), the concentration giving a half-maximal response (EC50) in experiment [1] is greater than 2000 nM; in experiment [2], 135 nM.

`CC[C@H](C)[C@H](NC(=O)[C@H](CCCCN)NC(=O)[C@H](CC(=O)O)NC(=O)[C@H](CC(C)C)NC(=O)[C@H](CC(C)C)NC(=O)[C@@H](NC(=O)[C@H](CO)NC(=O)[C@H](CCCCNC(=O)COCCOCCNC(=O)COCCOCCNC(=O)CC[C@H](NC(=O)CCCCCCCCCCCCCCCCCCC(=O)O)C(=O)O)NC(=O)[C@H](CC(=O)O)NC(=O)[C@H](CO)NC(=O)[C@@H](NC(=O)[C@](C)(Cc1ccccc1)NC(=O)[C@@H](NC(=O)CNC(=O)[C@H](CCC(=O)O)NC(=O)C(C)(C)NC(=O)[C@@H](N)Cc1ccc(O)cc1)[C@@H](C)O)[C@@H](C)O)[C@@H](C)CC)C(=O)N[C@@H](C)C(=O)N[C@@H](CCC(N)=O)C(=O)NC(C)(C)C(=O)N[C@@H](C)C(=O)N[C@@H](Cc1ccccc1)C(=O)N[C@H](C(=O)N[C@@H](CCC(=O)O)C(=O)N[C@@H](Cc1ccc(O)cc1)C(=O)N[C@@H](CC(C)C)C(=O)N[C@H](C(=O)N[C@@H](CCC(=O)O)C(=O)NCC(=O)NCC(N)=O)[C@@H](C)CC)[C@@H](C)CC` [Example 92] (H-Y[Aib]EGT[αMeF]TSDK([AEEA-AEEA-γGlu-C20 diacid])SILLDKIAQ[Aib]AFIEYLIEGG-NH2): the concentration giving a half-maximal response (EC50) in experiment [1] was 0.257 nM; in experiment [2] it was 0.338 nM.

For `CC[C@H](C)[C@H](NC(=O)[C@H](CCCCN)NC(=O)[C@H](CC(=O)O)NC(=O)[C@H](CC(C)C)NC(=O)[C@H](CC(C)C)NC(=O)[C@@H](NC(=O)[C@H](CO)NC(=O)[C@H](Cc1ccc(O)cc1)NC(=O)[C@H](CC(=O)O)NC(=O)[C@H](CO)NC(=O)[C@@H](NC(=O)[C@](C)(Cc1ccccc1)NC(=O)[C@@H](NC(=O)CNC(=O)[C@H](CCC(=O)O)NC(=O)C(C)(C)NC(=O)[C@@H](N)Cc1ccc(O)cc1)[C@@H](C)O)[C@@H](C)O)[C@@H](C)CC)C(=O)N[C@@H](C)C(=O)N[C@@H](CCC(N)=O)C(=O)NC(C)(C)C(=O)N[C@@H](CCCCNC(=O)COCCOCCNC(=O)COCCOCCNC(=O)CC[C@H](NC(=O)CCCCCCCCCCCCCCCCCCC(=O)O)C(=O)O)C(=O)N[C@@H](Cc1ccccc1)C(=O)N[C@H](C(=O)N[C@@H](CCC(=O)O)C(=O)N[C@@H](Cc1ccc(O)cc1)C(=O)N[C@@H](CC(C)C)C(=O)N[C@H](C(=O)N[C@@H](CCC(=O)O)C(=O)NCC(=O)NCC(N)=O)[C@@H](C)CC)[C@@H](C)CC` [Example 94] (H-Y[Aib]EGT[αMeF]TSDYSILLDKIAQ[Aib]K([AEEA-AEEA-γGlu-C20 diacid])FIEYLIEGG-NH2), the 50% effective concentration (EC50) in experiment [1] is 0.338 nM; in experiment [2], 0.425 nM.

For the compound `CC[C@H](C)[C@H](NC(=O)[C@H](CCCCN)NC(=O)[C@H](CC(=O)O)NC(=O)[C@H](CC(C)C)NC(=O)[C@H](CC(C)C)NC(=O)[C@@H](NC(=O)[C@H](CO)NC(=O)[C@H](Cc1ccc(O)cc1)NC(=O)[C@H](CC(=O)O)NC(=O)[C@H](CO)NC(=O)[C@@H](NC(=O)[C@](C)(Cc1ccccc1)NC(=O)[C@@H](NC(=O)CNC(=O)[C@H](CCC(=O)O)NC(=O)C(C)(C)NC(=O)[C@@H](N)Cc1ccc(O)cc1)[C@@H](C)O)[C@@H](C)O)[C@@H](C)CC)C(=O)N[C@@H](C)C(=O)N[C@@H](CCC(N)=O)C(=O)NC(C)(C)C(=O)N[C@@H](C)C(=O)N[C@@H](Cc1ccccc1)C(=O)N[C@H](C(=O)N[C@@H](CCC(=O)O)C(=O)N[C@@H](Cc1ccc(O)cc1)C(=O)N[C@@H](CC(C)C)C(=O)N[C@H](C(=O)N[C@@H](CCCCNC(=O)COCCOCCNC(=O)COCCOCCNC(=O)CC[C@H](NC(=O)CCCCCCCCCCCCCCCCCCC(=O)O)C(=O)O)C(=O)NCC(=O)NCC(N)=O)[C@@H](C)CC)[C@@H](C)CC` [Example 95] (H-Y[Aib]EGT[αMeF]TSDYSILLDKIAQ[Aib]AFIEYLIK([AEEA-AEEA-γGlu-C20 diacid])GG-NH2), the figures for the EC50 in experiment [1] and in experiment [2] were 1.01 nM and 1.17 nM, respectively.

As to `CC[C@H](C)[C@H](NC(=O)[C@H](CCCCN)NC(=O)[C@H](CC(=O)O)NC(=O)[C@H](CC(C)C)NC(=O)[C@](C)(CC(C)C)NC(=O)[C@@H](NC(=O)[C@H](CO)NC(=O)[C@H](CCCCNC(=O)COCCOCCNC(=O)COCCOCCNC(=O)CC[C@H](NC(=O)CCCCCCCCCCCCCCCCCCC(=O)O)C(=O)O)NC(=O)[C@H](CC(=O)O)NC(=O)[C@H](CO)NC(=O)[C@@H](NC(=O)[C@H](Cc1ccccc1)NC(=O)[C@@H](NC(=O)CNC(=O)[C@H](CCC(=O)O)NC(=O)C(C)(C)NC(=O)[C@@H](N)Cc1ccc(O)cc1)[C@@H](C)O)[C@@H](C)O)[C@@H](C)CC)C(=O)N[C@@H](C)C(=O)N[C@@H](CCC(N)=O)C(=O)NC(C)(C)C(=O)N[C@@H](C)C(=O)N[C@@H](Cc1ccccc1)C(=O)N[C@H](C(=O)N[C@@H](CCC(=O)O)C(=O)N[C@@H](Cc1ccc(O)cc1)C(=O)N[C@@H](CC(C)C)C(=O)N[C@H](C(=O)N[C@@H](CCC(=O)O)C(=O)NCC(=O)NCC(N)=O)[C@@H](C)CC)[C@@H](C)CC` [Example 96] (H-Y[Aib]EGTFTSDK([AEEA-AEEA-γGlu-C20 diacid])SI[αMeL]LDKIAQ[Aib]AFIEYLIEGG-NH2), the concentration for a half-maximal effect (EC50) in experiment [1] came to 0.59 nM; in experiment [2] it was 0.712 nM.

On to `CC[C@H](C)[C@H](NC(=O)[C@H](CCCCN)NC(=O)[C@H](CC(=O)O)NC(=O)[C@H](CC(C)C)NC(=O)[C@](C)(CC(C)C)NC(=O)[C@@H](NC(=O)[C@H](CO)NC(=O)[C@H](Cc1ccc(O)cc1)NC(=O)[C@H](CC(=O)O)NC(=O)[C@H](CO)NC(=O)[C@@H](NC(=O)[C@H](Cc1ccccc1)NC(=O)[C@@H](NC(=O)CNC(=O)[C@H](CCC(=O)O)NC(=O)C(C)(C)NC(=O)[C@@H](N)Cc1ccc(O)cc1)[C@@H](C)O)[C@@H](C)O)[C@@H](C)CC)C(=O)N[C@@H](C)C(=O)N[C@@H](CCC(N)=O)C(=O)NC(C)(C)C(=O)N[C@@H](C)C(=O)N[C@@H](Cc1ccccc1)C(=O)N[C@H](C(=O)N[C@@H](CCC(=O)O)C(=O)N[C@@H](Cc1ccc(O)cc1)C(=O)N[C@@H](CC(C)C)C(=O)N[C@H](C(=O)N[C@@H](CCCCNC(=O)COCCOCCNC(=O)COCCOCCNC(=O)CC[C@H](NC(=O)CCCCCCCCCCCCCCCCCCC(=O)O)C(=O)O)C(=O)NCC(=O)NCC(N)=O)[C@@H](C)CC)[C@@H](C)CC` [Example 97] (H-Y[Aib]EGTFTSDYSI[αMeL]LDKIAQ[Aib]AFIEYLIK([AEEA-AEEA-γGlu-C20 diacid])GG-NH2), for which the EC50 is 2.18 nM in experiment [1] and 1.85 nM in experiment [2].

For `CC[C@H](C)[C@H](NC(=O)[C@H](CC(C)C)NC(=O)[C@H](Cc1ccc(O)cc1)NC(=O)[C@H](CCC(=O)O)NC(=O)[C@@H](NC(=O)[C@H](Cc1ccccc1)NC(=O)[C@H](C)NC(=O)C(C)(C)NC(=O)[C@H](CCC(N)=O)NC(=O)[C@H](C)NC(=O)[C@H](CCCCNC(=O)COCCOCCNC(=O)COCCOCCNC(=O)CC[C@H](NC(=O)CCCCCCCCCCCCCCCCCCC(=O)O)C(=O)O)NC(=O)[C@H](CCCCN)NC(=O)[C@H](CC(=O)O)NC(=O)[C@H](CC(C)C)NC(=O)[C@H](CC(C)C)NC(=O)[C@@H](NC(=O)[C@H](CO)NC(=O)[C@H](Cc1ccc(O)cc1)NC(=O)[C@H](CC(=O)O)NC(=O)[C@H](CO)NC(=O)[C@@H](NC(=O)[C@](C)(Cc1ccccc1)NC(=O)[C@@H](NC(=O)CNC(=O)[C@H](CCC(=O)O)NC(=O)C(C)(C)NC(=O)[C@@H](N)Cc1ccc(O)cc1)[C@@H](C)O)[C@@H](C)O)[C@@H](C)CC)[C@@H](C)CC)C(=O)N[C@@H](CCC(=O)O)C(=O)NCC(=O)NCC(N)=O` [Example 98] (H-Y[Aib]EGT[αMeF]TSDYSILLDKK([AEEA-AEEA-γGlu-C20 diacid])AQ[Aib]AFIEYLIEGG-NH2), the figures for the EC50 in experiment [1] and in experiment [2] were 0.157 nM and 0.0718 nM, respectively.

Source of the values: US12252524B2, “GIP/GLP1 co-agonist compounds” (Eli Lilly and Company, priority 2018, dated 2025).
